Reference: patent publication US12729377B2, “RNAi agents and compositions for inhibiting expression of angiopoietin-like 3 (ANGPTL3), and methods of use” (Arrowhead Pharmaceuticals, Inc., priority 2017, dated 2026)
In the oligonucleotide strings, read from the 5' end, every base follows the letter of its sugar. An asterisk marks phosphorothioate; unmarked linkages are phosphodiester. Other units and linkages are bracketed, terminal groups are in braces. A string of capitals states the bases alone. {NAG37} = tridentate N-acetyl-galactosamine targeting ligand, structure (NAG37)s; [invAb] = inverted abasic unit; m = 2'-O-methyl; f = 2'-fluoro

Columns and labels:
[1] = system: ANGPTL3 gene; test: Example 4: serum HDL in mice; format: in vivo, C57bl/6 mice
Method: (§1) To assess the in vivo activity of ANGPTL3 RNAi agents that are designed to target additional positions on the ANGPTL3 gene, six- to eight-week-old female C57bl/6 mice were used. Pre-dose serum samples were taken at day −1 after a four hour fast. At day 1, each mouse was given a single subcutaneous administration of 200 μl containing either 1 mg/kg (mpk) or 0.5 mg/kg (mpk) of an ANGPTL3 RNAi agent in D5W (dextrose in 5% water), or control (D5W) with no RNAi agent, according to the dosing groups recited in Table 17.
(§2) Each of the RNAi agents included a modified sequence and an N-acetyl-galactosamine-containing targeting ligand conjugated to the 5′ terminal end of the sense strand. (See Tables 3, 4, and 5 for modified sequences and targeting ligand structures). The injections were performed between the skin and muscle (i.e. subcutaneous injections) into the loose skin over the neck and shoulder area. Three (3) mice in each group were tested (n=3). Serum was collected on days 8, 15, 22, 29, and day 43 (Groups 1-3, 9, and 11-13 only). Mice were fasted for four hours prior to each collection. ANGPTL3 protein levels in serum were measured by ELISA assay (R&D Systems), according to the manufacturer's recommendations. Triglycerides, high-density lipoprotein (HDL), and total cholesterol in serum were measured on a Cobas® Integra 400 (Roche Diagnostics), according to the manufacturer's recommendations.
(§3) The ANGPTL3 protein levels, triglyceride levels, HDL levels, and total cholesterol levels for each animal were normalized. For normalization, the level of ANGPTL3 protein, triglyceride, HDL, and total cholesterol, respectively, for each animal at a time point, was divided by the pre-treatment level of expression in that animal (in this case at day −1) to determine the ratio of expression “normalized to pre-treatment.” Expression at a specific time point was then normalized to the D5W control group by dividing the “normalized to pre-treatment” ratio for an individual animal by the mean “normalized to pretreatment” ratio of all mice in the D5W control group.

[2] = system: ANGPTL3 gene; test: Example 4: serum total cholesterol in mice; format: in vivo, C57bl/6 mice
Method: as §1, §2, §3

[3] = system: ANGPTL3 gene; test: Example 4: serum LDL in mice; format: in vivo, C57bl/6 mice; details: for Avg LDL, normalized to pre-treatment and control: 1.0 mg/kg single SC injection on day 1, serum, n=3
Method: as §1, §2, §3

[4] = system: ANGPTL3 protein; test: Example 4: serum ANGPTL3 protein by ELISA in mice; format: in vivo, C57bl/6 mice; details: for Avg ANGPTL3 (Average ANGPTL3 Protein Normalized to Pre-Treatment and Control): 1.0 mg/kg single subcutaneous dose on day 1, serum, female C57bl/6 mice
Method: as §1, §2, §3

[5] = system: ANGPTL3 gene; test: Example 4: serum triglycerides in mice; format: in vivo
Method: as §1, §2, §3

[6] = Day 8, 1.0 mg/kg single SC injection on day 1, n=3
[7] = Day 15, 1.0 mg/kg single SC injection on day 1, n=3
[8] = Day 22, 1.0 mg/kg single SC injection on day 1, n=3
[9] = Day 29, 1.0 mg/kg single SC injection on day 1, n=3
[10] = Day 43, 1.0 mg/kg single SC injection on day 1, n=3

## AD05487: RNAi agent duplex: antisense AM07233-AS, sense AM07232-SS (antisense mU*fA*mC*fUmGfAmUfCmAfAmAfUmAfUmGfUmUfGmAfG*mU; sense {NAG37}*[invAb]*mAmCmUmCmAmAmCmAfUfAfUmUmUmGmAmUmCmAmGmUmA*[invAb])
[1]; [6]
  Avg HDL, normalized to pre-treatment and control: 0.716
[1]; [7]
  Avg HDL, normalized to pre-treatment and control: 0.918
[1]; [8]
  Avg HDL, normalized to pre-treatment and control: 0.658
[1]; [9]
  Avg HDL, normalized to pre-treatment and control: 0.745
[1]; [10]
  Avg HDL, normalized to pre-treatment and control: 0.934
[2]; [6]
  Avg Total Chol, normalized to pre-treatment and control: 0.728
[2]; [7]
  Avg Total Chol, normalized to pre-treatment and control: 0.944
[2]; [8]
  Avg Total Chol, normalized to pre-treatment and control: 0.697
[2]; [9]
  Avg Total Chol, normalized to pre-treatment and control: 0.560
[2]; [10]
  Avg Total Chol, normalized to pre-treatment and control: 0.923
[3]; Day 8
  Avg LDL, normalized to pre-treatment and control: 0.916
[3]; Day 15
  Avg LDL, normalized to pre-treatment and control: 1.125
[3]; Day 22
  Avg LDL, normalized to pre-treatment and control: 0.845
[3]; Day 29
  Avg LDL, normalized to pre-treatment and control: 0.744
[3]; Day 43
  Avg LDL, normalized to pre-treatment and control: 0.989
[3]; day 29, single 1 mg/kg subcutaneous, C57bl/6 mice
  LDL levels reduced: ~20%
[4]; Day 8
  Avg ANGPTL3 (Average ANGPTL3 Protein Normalized to Pre-Treatment and Control): 0.173
[4]; Day 15
  Avg ANGPTL3 (Average ANGPTL3 Protein Normalized to Pre-Treatment and Control): 0.170
[4]; Day 22
  Avg ANGPTL3 (Average ANGPTL3 Protein Normalized to Pre-Treatment and Control): 0.138
[4]; Day 29
  Avg ANGPTL3 (Average ANGPTL3 Protein Normalized to Pre-Treatment and Control): 0.226
[4]; Day 43
  Avg ANGPTL3 (Average ANGPTL3 Protein Normalized to Pre-Treatment and Control): 0.477
[4]; day 15, single 1 mg/kg subcutaneous, C57bl/6 mice
  ANGPTL3 protein normalized to pre-treatment and control: 0.170
[4]; day 22, single 1 mg/kg subcutaneous, C57bl/6 mice
  ANGPTL3 protein normalized to pre-treatment and control: 0.138
[4]; days 15 and 22, single 1 mg/kg subcutaneous, C57bl/6 mice
  knockdown of ANGPTL3 protein: ~75%
[5]; Day 8, 1.0 mg/kg single subcutaneous dose on day 1, female C57bl/6 mice
  Avg TG (Average Triglycerides Normalized to Pre-Treatment and Control): 0.776
[5]; Day 15, 1.0 mg/kg single subcutaneous dose on day 1, female C57bl/6 mice
  Avg TG (Average Triglycerides Normalized to Pre-Treatment and Control): 0.912
[5]; Day 22, 1.0 mg/kg single subcutaneous dose on day 1, female C57bl/6 mice
  Avg TG (Average Triglycerides Normalized to Pre-Treatment and Control): 0.761
[5]; Day 29, 1.0 mg/kg single subcutaneous dose on day 1, female C57bl/6 mice
  Avg TG (Average Triglycerides Normalized to Pre-Treatment and Control): 0.556
[5]; Day 43, 1.0 mg/kg single subcutaneous dose on day 1, female C57bl/6 mice
  Avg TG (Average Triglycerides Normalized to Pre-Treatment and Control): 0.757
